Data as given in patent US4452786A, “Condurango glycoside compounds, processes for their preparation, antitumor agents comprising them and compositions” (Zenyaku Kogyo Kabushiki Kaisha, priority 1980, dated 1984).

Key:
Ehrlich carcinoma = experiment: Screening test against Ehrlich carcinoma, subcutaneous solid type, in mice (T/C of tumor weight on thirtieth day); assay type: in vivo, ddy male mice; settings: intraperitoneally, once per day for ten days, average tumor weight on thirtieth day
Protocol: The activity of the compounds of the present invention against Ehrlich carcinoma was confirmed by the screening test mentioned below.
Ehrlich carcinoma was employed for the determination of the antitumor properties, and the tumor to be tested was of subcutaneous solid type.
The animal group to which the compounds of the present invention were administered consisted of seven mice, whereas the control group consisted of ten mice.
Six weeks old ddy male mice (body weight: 28-30 g) were employed except for the case where condurango glycoside Ao or Co was administered; in the latter case those weighing 20-26 g and being five weeks old were used.
The tumors were transplanted intraperitoneally in the mice. On the seventh day after the transplantation, the well grown cells of the tumors were taken out, and 1.5×10^6 cells (3.0×10^6 cells in the case where condurango glycoside Ao or Co was given) thereof was transplanted subcutaneously in the inguinal region of the mice to form solid tumors. At and after 24 hours after the transplantation, the compounds of the present invention dissolved in physiological saline solutions were administered to the mice intraperitoneally.
The volume of the respective solutions administered was 0.2 ml per mouse at one time, and the administration was continued for ten days at a rate of one time per day. Only physiological saline solutions were given to the mice of the control group.
On the thirtieth day after the transplantation, the tumors were taken out and measured to get the average weight of the tumors of the mice of the group to which the compounds of the present invention had been administered (T) and that of the control group (C) and to calculate the T/C (%).

[1] = Acute toxicity, intraperitoneal administration to mice, five days observation; assay type: in vivo; settings: mouse, in vivo, ip, intraperitoneally, five weeks old ddy male mice
Text: (§1) Next, the acute toxicity of the compounds of the present invention is as follows.

ddy male mice = experiment: as above; assay type: in vivo; settings: intraperitoneally, five weeks old ddy male mice, 7200 min
Text: as §1

Row | Compound | T/C (%) (Ehrlich carcinoma; 8 mg/kg × 10 times) | T/C (%) (Ehrlich carcinoma; 16 mg/kg × 10 times) | LD50 at 120 h [1] [mg/kg] | T/C (%) (Ehrlich carcinoma; 32 mg/kg × 10 times) | LD50 (ddy male mice) [mg/kg]
1 | COC1CC(OC2CCC3(C)C(CCC4C3C(OC(=O)C=Cc3ccccc3)C(OC(C)=O)C35COC(C)(OC)C3CCC45O)C2)OC(C)C1OC1CC(OC)C(OC2OC(C)C(OC3OC(CO)C(O)C(O)C3O)C(OC)C2O)C(C)O1 (stereo not drawn) [20-O-methyl-condurango glycoside Do] | 16.5 | 11.6 | 603 | – | –
2 | COC1CC(OC2CCC3(C)C(CCC4C3C(OC(=O)C=Cc3ccccc3)C(OC(C)=O)C3(C)C(C(C)O)CCC43O)C2)OC(C)C1OC1CC(OC)C(OC2OC(C)C(OC3OC(CO)C(O)C(O)C3O)C(OC)C2O)C(C)O1 (stereo not drawn) [Condurango glycoside Co, condurango glycoside Co] | – | 30.8 | 375 | 20.1 | –
3 | COC1CC(OC2CCC3(C)C(CCC4C3C(OC(=O)C=Cc3ccccc3)C(OC(C)=O)C35COC6(C)OC43CCC65)C2)OC(C)C1OC1CC(OC)C(OC2OC(C)C(OC3OC(CO)C(O)C(O)C3O)C(OC)C2O)C(C)O1 (stereo not drawn) [Condurango glycoside Bo, condurango glycoside Bo] | 23.3 | 11.8 | 615 | 10.0 | –
4 | COC1CC(OC2CCC3(C)C(CCC4C3C(OC(=O)C=Cc3ccccc3)C(OC(C)=O)C3(C)C(C(C)=O)CCC43O)C2)OC(C)C1OC1CC(OC)C(OC2OC(C)C(OC3OC(CO)C(O)C(O)C3O)C(OC)C2O)C(C)O1 (stereo not drawn) [Condurango glycoside Ao, condurango glycoside Ao] | 32.1 | 27.3 | 75 | – | –
5 | COC1CC(OC2CCC3(C)C(CCC4C3C(OC(=O)C=Cc3ccccc3)C(OC(C)=O)C35COC(C)(O)C3CCC45O)C2)OC(C)C1OC1CC(OC)C(OC2OC(C)C(OC3OC(CO)C(O)C(O)C3O)C(OC)C2O)C(C)O1 (stereo not drawn) [Condurango glycoside Do, condurango glycoside Do] | 29.0 | 53.8 | 630 | 9.5 | –
6 | COC1CC(OC2CCC3(C)C(CCC4C3C(OC(=O)C=Cc3ccccc3)C(OC(C)=O)C35COC(C)(OC)C3CCC45O)C2)OC(C)C1OC1CC(OC)C(OC2OC(C)C(OC3OC(CO)C(O)C(O)C3O)C(OC)C2O)C(C)O1 (stereo not drawn) [20-Iso-O-methyl-condurango glycoside Do, 20-iso-O-methyl-condurango glycoside Do] | 38.1 | 26.3 | – | 18.0 | 642
